The source of these data is US20060171912A1, “Diiodomethyl-p-tolylsulfone as a particulate dispersion in a liquid solvent” (priority 2005, published 2006).

Data set [1] deals with Malassezia furfur (ATCC 14521). Briefly: Minimum Inhibitory Concentration (MIC) agar dilution test. It is filed as cell-based. Conditions: for MIC: M. furfur, mDixon agar, 30°, 4-5 days; for Retained Activity: dispersed particle form (in water) vs. dissolved in an effective solvent (DMSO). The protocol: ^1The Minimum Inhibitory Concentration is indicative of anti-fungal efficacy. Generally, the lower the value of the composition, the better its anti-fungal efficacy, due to increased inherent ability of the anti-dandruff agent to inhibit the growth of microorganisms.
Malassezia furfur was grown in a flask containing mDixon medium (see E. Gueho, et al. Antoinie Leeuwenhoek (1996), no. 69, 337-55, which description is incorporated by reference herein). Dilutions of solubilized anti-microbial active were then added to test tubes containing molten mDixon agar. M. furfur inoculum was added to each tube of molten agar, the tube vortexed, and the contents poured into separate sterile petri dishes. […] The lowest tested dilution of anti-microbial active that yields no growth is defined as the Minimal Inhibitory Concentration (MIC).
Experimental Procedure • 1) Malassezia furfur was grown in a 125 ml Erlenmeyer flask containing 50 ml “mDIXON” medium at 200 rpm and 30° C. until turbid. • 2) Selected dilutions were prepared using an appropriate dilution series, of the anti-microbial active or combination in solvent, which allowed the sample active to be solubilized prior to addition to the final test agar. For each concentration of the ZPT samples, the solvent was “DMSO”; for other samples, the solvent was water or “DMSO” or other suitable solvent. • 3) 0.25 ml dilutions of anti-microbial active were added to test tubes containing 9.5 ml molten “mDIXON” agar (held at 45° C. in a water bath). • 4) 0.25 M. furfur inoculum (adjusted to 5×10^5 cfu/ml by direct count) was added to each test tube of molten agar. • 5) Each tube was vortexed, and the contents poured into separate petri dishes. • 6) After the agar solidified, the plates inverted and incubated at 30° for 4-5 days. • 7) The plates were then observed for visible M. furfur growth. Particle Size Determination Method

The conditions of data set [2]: cited from earlier work.

Read-outs that look alike come from different tables or passages of the source.

Regarding `Cc1ccc(S(=O)(=O)C(I)I)cc1` [diiodomethyl-p-tolylsulfone, Diiodomethyl-p-tolylsulfone], the MIC in data set [1] (Dispersed in Water) was 2.0 ppm; in data set [1] (Malassezia furfur, ATCC14521, Dissolved in DMSO, read-out: MIC), 2 µg/mL. Besides, the “Retained Activity” value in data set [1] is recorded as “about 100%”; in data set [1] (listed as AMICAL 48), 100%; in data set [1] (listed as Diiodomethyl-p-tolylsulfone) it was 100%. Also, the water solubility entry in data set [2] is listed as “less than 5 ppm”.
